ChEMBL document CHEMBL1145154 (J Med Chem, 2005)
Active and inactive are the calls of the source. The calls are words filed in the database; no cut-off is given here.

Tests used:
A2780 = assay: In vitro cytotoxicity for human ovarian tumor A2780 cells; type: functional, cell-based
Salmon testes DNA [1] = assay: Binding affinity towards salmon testes DNA; type: nucleic-acid assay; details: Oncorhynchus gorbuscha
Salmon testes DNA [2] = assay: Binding affinity towards salmon testes DNA; NA=not applicable; type: nucleic-acid assay; details: Oncorhynchus gorbuscha

Compound	IC50 (A2780; Homo sapiens, A2780) [µM]	K (Salmon testes DNA [1]) [M⁻¹]	K (Salmon testes DNA [2])	IC50 (A2780; a2780) [µM]
CCCCCCCCCCCC[N+]1=C2c3ccccc3-c3ccccc3N2CC1	0.087	129000	–	–
COc1ccc2c(c[n+](C)c3c4cc5c(cc4ccc23)OCO5)c1OC [CHELERYTHRINE CHLORIDE]	4.63	466000	–	–
COc1ccc(C[N+]2=C3c4ccccc4-c4ccccc4N3CC2)cc1	1.53	28900	–	–
c1ccc2c(c1)C1=NCCN1c1ccccc1-2	1.56	25600	–	–
CARBOPLATIN [listing 1 of 2 here]	–	–	inactive	–
CARBOPLATIN [listing 2 of 2 here]	–	–	–	5.22
OCC[N+]1=C2c3ccccc3-c3ccccc3N2CC1	11.7	20200	–	–
